These results are taken from article PMC6349869, “The palladacycle complex AJ-5 induces apoptotic cell death while reducing autophagic flux in rhabdomyosarcoma cells” (Cell Death Discovery, 2019).

The test system of experiment [1] is RD cells. Description: Single-cell autophagosome flux analyses. To be noted: IC50 48 h. Type of experiment: cell-based, human. Here is the method:
The autophagosome flux was calculated from the rate of autophagosome accumulation as previously described. Briefly, this was determined after the complete inhibition of fusion between autophagosomes and lysosomes using 400 nM bafilomycin A1 (B0025; LKT Laboratories Inc., Minnesota, USA).
Cells were transfected with a GFP-LC3 construct using Lipofectamine 3000 (L3000001; Thermo Fisher Scientific) according to the manufacturer’s instructions and maintained for 2 days in order to achieve high levels of GFP-LC3 expression.
Autophagosome, autolysosome and lysosome pool size was assessed by supplementing the culture media with 25 nM LysoTracker Red (L7528; Thermo Fisher Scientific) 2 h prior to image acquisition. An LSM 780 confocal with ELYRA S.1 Superresolution platform (Carl Zeiss) was used for image acquisition. The eight-chamber dish was placed in a heated chamber maintained at 5% CO2 that encased the microscope objective. An LCI Plan-Apochromat ×63/1.4 oil DIC M27 objective was used and samples were excited with an Argon multiline laser 25 mW at 488 and 514 nm with appropriate beam splitters and GaAsP detector 32+2 PMT. Multiple z layers were acquired with […] step width. Laser power and electron gain were set to achieve an optimal signal to noise ratio without causing photo-toxicity. […]

The subject of experiment [2] is RH30 cells. Description: Autophagic flux by western blotting (p62; LC3II with bafilomycin A1), RH30. In kind it is cell-based, human. The protocol:
AJ-5, synthesized as previously described, was dissolved in dimethyl sulfoxide (DMSO) (D8418; Sigma Aldrich) to give a 5 mM AJ-5 stock which was stored at room temperature (RT) and used within 5 days. AJ-5 was diluted in cell culture medium to achieve the desired final concentration and a vehicle control (DMSO) of the same concentration was prepared simultaneously. Cells were treated at a confluency of 60%. For western blot experiments to determine autophagy flux, cells were treated with 200 nM bafilomycin A1 (B1793; Sigma Aldrich) for 2 h post AJ-5 treatment. Doxorubicin (z/26/0167; Teva Pharmaceutical Industries Ltd, Israel) was used as a positive control in Caspase-Glo experiments at a concentration of 0.5 µM.
Cells were lysed at 4 °C in whole-cell lysis buffer (0.125 M Tris-HCl pH 6.8, 4% SDS, 0.2% glycerol, 0.1% β-mercaptoethanol and a pinch of bromophenol blue) and boiled for 10 min. Proteins were resolved by SDS-PAGE (6–15% gels) and transferred to Hybond ECL membranes (Amersham, UK). […] Densitometry readings were obtained using ImageJ v1.50i[58] and protein expression levels were represented as a ratio of protein of interest/p38 loading control normalized to the vehicletreated control sample where appropriate. […]

For `CC(C)c1cccc(C(C)C)c1[N+]1=Cc2cccc[c]2[Pd-2]1([Cl])[P+](CC[P+](c1ccccc1)(c1ccccc1)[Pd-2]1([Cl])[c]2ccccc2C=[N+]1c1c(C(C)C)cccc1C(C)C)(c1ccccc1)c1ccccc1` (stereo not drawn) [AJ-5], in experiment [1], the “Autolysosome pool size and autophagosome flux J” value is on record as “significantly decreased”. Moreover, the “Autophagic flux judged by p62 levels” value in experiment [2] (RH30, 0.1 µM or IC50, 24 and 48 h) is listed as “appears to reduce autophagic flux”. Also, in experiment [2] (RH30, IC50 24 h then 200 nM bafilomycin A1 2 h), the “LC3II in the presence of bafilomycin A1” value is given as “decreased levels of LC3II”.
